# Results reported in paper PMC6024615, “Effect of Biliary Drainage on the Toxicity and Toxicokinetics of Amanita exitialis in Beagles” (Toxins, 2018).
# Experiments:
# [1] = Peptide toxins in the urine of beagles with biliary drainage; format: in vivo, beagle dogs; conditions: for Total (accumulated) amount excreted in urine / percentage of total urine excretion, Total: 0–4 days
# Procedure: (§1) The study was approved by National Institute of Occupational Health and Poison Control review board for animal experiments. Twenty-four male beagles (age, 8–10 months; weight, 10 ± 1 kg) were obtained from Beijing Institute of Xieerxin Biology Resource (Beijing, China). They were randomly divided into four groups of six animals each: control, biliary drainage, and 20 and 60 mg/kg with biliary drainage groups. The biliary drainage operation was conducted in all groups barring the control group. The dogs were dressed in homemade underwear, coats, and Elizabeth circles for a week to ensure pre-experimental acclimatization (Figure S8a–c). After determining the baseline values for biochemical indicators, the dogs were fasted for 24 h but received water ad libitum. They were anesthetized by intravenous administration of pentobarbital sodium (3%, 1 mL/kg) during the surgery. A temperature of 38–39 °C was maintained with a warming mat. After skin preservation and sterilization, the abdominal cavity was opened through the central abdomen. The abdomen was explored and blunt dissection of the common bile duct was performed (Figure S8d). The common bile duct and its branches were ligated from the intestinal side. A 7.0-Fr drainage catheter (COOK, Bloomington, IN, USA) was percutaneously inserted into the gallbladder, and a medical drainage bag was connected to the drainage catheter coming out of the abdominal cavity. Each opened layer, including the peritoneum, abdominal wall muscle, and skin, was closed with suture. The operative incision was protected with sterile gauze and a bandage, and the dogs were dressed in homemade underwear, coats, and Elizabeth circles. The drainage bag was placed in the pocket of the coat (Figure S8e). After the anesthetic wore off, the dogs were placed in cages, and food and water were provided ad libitum. The operative incision was sterilized with iodophor twice a day until stitches were removed six days after surgery. The drainage bag was replaced every day. On the eighth day after surgery, the 20 and 60 mg/kg with biliary drainage groups were orally administered a lyophilized powder of Amanita exitialis in starch capsules. In control and bile drainage group, the beagle dogs were fed with empty capsules. Immediately after dosing, the animals were placed in their cages, and food and water were provided ad libitum. Dogs were sacrificed with an overdose of sodium pentobarbital at the end of the experiment. All procedures were performed according to the ethical standards of the National Institutes of Health Guide for Animal Welfare and approved by the Institutional Animal Care and Use Committee (EAWE-2017-005).
# (§2) Peptide toxins in blood and urine samples were analyzed as described previously. Bile samples from Days 0–1, Days 1–2, Days 2–3, and Days 3–4 were collected and stored in medical drainage bags and the bile volume was recorded. Plasma and urine samples were stored at 2–8 °C until analysis for peptide toxins.
# (§3) UPLC and MS/MS parameters were as described in our previous study. The limit of detection and limit of quantitation of each toxin in the bile were 0.03 mg/kg and 0.5 mg/kg, respectively.
# [2] = Peptide toxins in the bile of beagles with biliary drainage; format: in vivo, beagle dogs; conditions: for Accumulated amounts excreted in bile / percentage of total bile excretion, Accumulated amounts: 0–4 days; for ratio of peptide toxins in bile to excretion in urine and bile: mean ± SD
# Procedure: as §1, §2
# α-Amanitin, β-amanitin, γ-amanitin, and phallacidin were used as the standard reference materials. Aliquots (0.2 mL) of bile samples were transferred into 2-mL polypropylene centrifuge tubes in duplicates. Next, 1 mL of acetonitrile was added to each tube. After vortex-mixing for 1 min, each sample was sonicated for 30 min and centrifuged at 11,200× g for 10 min at 4 °C. The supernatants were loaded on solid-phase extraction columns (Oasis PRiME HLB, 60 mg, 3 cc). The columns were then washed with 3 mL of methanol/ultrapure water (v/v: 5/95). The eluent was evaporated in a stream of nitrogen at room temperature. The dry residue was dissolved in 0.2 mL of ultrapure water and analyzed by UPLC-ESI-MS/MS.
# as §3
# [3] = 0-1 d, 60 mg/kg with biliary drainage group
# [4] = 0–1 days, 20 mg/kg with biliary drainage group
# [5] = 0–1 days, 60 mg/kg with biliary drainage group
# [6] = 20 mg/kg with biliary drainage group
# [7] = 60 mg/kg with biliary drainage group
# [8] = 1-2 d, 20 mg/kg with biliary drainage group
# [9] = 1-2 d, 60 mg/kg with biliary drainage group
# [10] = 1–2 days, 20 mg/kg with biliary drainage group
# [11] = 1–2 days, 60 mg/kg with biliary drainage group
# [12] = 2-3 d, 20 mg/kg with biliary drainage group
# [13] = 2-3 d, 60 mg/kg with biliary drainage group
# [14] = 2–3 days, 20 mg/kg with biliary drainage group
# [15] = 2–3 days, 60 mg/kg with biliary drainage group
# [16] = 3-4d, 20 mg/kg with biliary drainage group
# [17] = 3-4d, 60 mg/kg with biliary drainage group
# [18] = 3–4 days, 20 mg/kg with biliary drainage group
# [19] = 3–4 days, 60 mg/kg with biliary drainage group
smiles,measurement,setting,value
CC[C@H](C)[C@@H]1NC(=O)CNC(=O)[C@@H]2Cc3c([nH]c4cc(O)ccc34)[S@+]([O-])C[C@H](NC(=O)CNC1=O)C(=O)N[C@@H](CC(N)=O)C(=O)N1C[C@H](O)C[C@H]1C(=O)N[C@@H]([C@@H](C)[C@@H](O)CO)C(=O)N2 [α-amanitin],detection rate of peptide toxins in urine,[1]; [3],100%
same,daily amount excreted in urine,[1]; [4],0.0147 mg
same,percentage of total urine excretion excreted daily,"[1]; 0–1 days, 20 mg/kg with biliary drainage group, 20 mg/kg",more than 90%
same,percentage of total urine excretion excreted daily,"[1]; 0–1 days, 20 mg/kg with biliary drainage group, listed as α-Amanitin, 20 mg/kg",96.3%
same,daily amount excreted in urine,[1]; [5],0.0213 mg
same,percentage of total urine excretion excreted daily,"[1]; 0–1 days, 60 mg/kg with biliary drainage group, 60 mg/kg",more than 90%
same,percentage of total urine excretion excreted daily,"[1]; 0–1 days, 60 mg/kg with biliary drainage group, listed as α-Amanitin, 60 mg/kg",90.9%
same,Total (accumulated) amount excreted in urine,[1]; [6],0.0151 mg
same,"percentage of total urine excretion, Total",[1]; [6],100%
same,Total (accumulated) amount excreted in urine,[1]; [7],0.0222 mg
same,"percentage of total urine excretion, Total",[1]; [7],100%
same,time within which toxin was detected in urine,[1]; [6],two
same,time within which toxin was detected in urine,[1]; [7],three
same,detection rate of peptide toxins in urine,[1]; [8],100%
same,detection rate of peptide toxins in urine,[1]; [9],100%
same,daily amount excreted in urine,[1]; [10],0.0004 mg
same,percentage of total urine excretion excreted daily,[1]; [10],3.7%
same,daily amount excreted in urine,[1]; [11],0.0007 mg
same,percentage of total urine excretion excreted daily,[1]; [11],8.9%
same,detection rate of peptide toxins in urine,[1]; [12],0%
same,toxin content in urine,"[1]; 2-3d, 20 mg/kg with biliary drainage group, mean ± SD",0 µg/L
same,detection rate of peptide toxins in urine,[1]; [13],50%
same,daily amount excreted in urine,[1]; [14],0(0%) mg
same,percentage of total urine excretion excreted daily,[1]; [14],0(0%)
same,daily amount excreted in urine,[1]; [15],0.0001 mg
same,percentage of total urine excretion excreted daily,[1]; [15],0.2%
same,detection rate of peptide toxins in urine,[1]; [16],0%
same,toxin content in urine,[1]; [16],0 µg/L
same,detection rate of peptide toxins in urine,[1]; [17],0%
same,toxin content in urine,[1]; [17],0 µg/L
same,daily amount excreted in urine,[1]; [18],0(0%) mg
same,percentage of total urine excretion excreted daily,[1]; [18],0(0%)
same,daily amount excreted in urine,[1]; [19],0(0%) mg
same,percentage of total urine excretion excreted daily,[1]; [19],0(0%)
same,share of total urine excretion in the 0–2-day urine,"[1]; beagles with biliary drainage, both dose groups",more than 95%
same,detection rate of peptide toxins in bile,[2]; [3],83%
same,daily amount excreted in bile,[2]; [4],0.00007 mg
same,percentage of total bile excretion excreted daily,[2]; [4],100%
same,daily amount excreted in bile,[2]; [5],0.00061 mg
same,percentage of total bile excretion excreted daily,[2]; [5],100%
same,Accumulated amounts excreted in bile,[2]; [6],0.00007 mg
same,"percentage of total bile excretion, Accumulated amounts",[2]; [6],100%
same,Accumulated amounts excreted in bile,[2]; [7],0.00061 mg
same,"percentage of total bile excretion, Accumulated amounts",[2]; [7],100%
same,ratio of peptide toxins in bile to excretion in urine and bile,[2]; [6],less than 10%
same,ratio of peptide toxins in bile to excretion in urine and bile,"[2]; 20 mg/kg with biliary drainage group, listed as α-Amanitin",1.3 ± 2.4%
same,ratio of peptide toxins in bile to excretion in urine and bile,[2]; [7],less than 20%
same,ratio of peptide toxins in bile to excretion in urine and bile,"[2]; 60 mg/kg with biliary drainage group, listed as α-Amanitin",3.1 ± 2.5%
same,detection rate of peptide toxins in bile,[2]; [8],0%
same,toxin concentration in bile,[2]; [8],0 µg/L
same,detection rate of peptide toxins in bile,[2]; [9],0%
same,toxin concentration in bile,[2]; [9],0 µg/L
same,daily amount excreted in bile,[2]; [10],0(0%) mg
same,percentage of total bile excretion excreted daily,[2]; [10],0(0%)
same,daily amount excreted in bile,[2]; [11],0(0%) mg
same,percentage of total bile excretion excreted daily,[2]; [11],0(0%)
same,detection rate of peptide toxins in bile,[2]; [12],0%
same,toxin concentration in bile,[2]; [12],0 µg/L
same,detection rate of peptide toxins in bile,[2]; [13],0%
same,toxin concentration in bile,[2]; [13],0 µg/L
same,daily amount excreted in bile,[2]; [14],0(0%) mg
same,percentage of total bile excretion excreted daily,[2]; [14],0(0%)
same,daily amount excreted in bile,[2]; [15],0(0%) mg
same,percentage of total bile excretion excreted daily,[2]; [15],0(0%)
same,detection rate of peptide toxins in bile,[2]; [16],0%
same,toxin concentration in bile,[2]; [16],0 µg/L
same,detection rate of peptide toxins in bile,[2]; [17],0%
same,toxin concentration in bile,[2]; [17],0 µg/L
same,daily amount excreted in bile,[2]; [18],0(0%) mg
same,percentage of total bile excretion excreted daily,[2]; [18],0(0%)
same,daily amount excreted in bile,[2]; [19],0(0%) mg
same,percentage of total bile excretion excreted daily,[2]; [19],0(0%)
